≈ marks a conversion by molar mass, not a printed value. Counter-ions that a name gives are not always drawn. Like-named read-outs stand apart in the source and are kept apart here. Marks after values point to notes of the source that are not given here.
What was measured:
[1] = system: E. coli NIHJ; experiment: Antibacterial activity (MIC), standard method of the Japan Society of Chemotherapy; assay type: cell-based
Procedure: (§1) The antimicrobial activities of the compounds of the present invention were determined according to a standard method designated by the Japan Society of Chemotherapy. The results are expressed by MIC (μg/mL) (Table 1). In Table 1, S. aureus 870307 and S. pneumonia J24 are quinolone-resistant bacteria.

[2] = system: E. faevcalis ATCC 19433; experiment: as above; assay type: cell-based
Procedure: as §1

[3] = system: K. pneumoniae TYPE I; experiment: as above; assay type: cell-based
Procedure: as §1

[4] = system: P. Vulgalis 08601; experiment: as above; assay type: cell-based
Procedure: as §1

[5] = system: P. aeruginosa 32104; experiment: as above; assay type: cell-based
Procedure: as §1

[6] = system: P. aeruginosa 32121; experiment: as above; assay type: cell-based
Procedure: as §1

[7] = system: S. aureus 870307; experiment: as above; assay type: cell-based
Procedure: as §1

[8] = system: S. aureus FDA 209P; experiment: as above; assay type: cell-based
Procedure: as §1

[9] = system: S. epidermidis 56500; experiment: as above; assay type: cell-based
Procedure: as §1

[10] = system: S. flexneri 2A 5503; experiment: as above; assay type: cell-based
Procedure: as §1

[11] = system: S. maltophilia IID 1275; experiment: as above; assay type: cell-based
Procedure: as §1

[12] = system: S. marcescens 10100; experiment: as above; assay type: cell-based
Procedure: as §1

[13] = system: S. pneumoniae J24; experiment: as above; assay type: cell-based
Procedure: as §1

[14] = system: S. pyogenes G-36; experiment: as above; assay type: cell-based
Procedure: as §1

[15] = system: Chinese hamster lung (CHL/IU) cells; experiment: Effect of inducing chromosomal aberration; assay type: cell-based; details: for Percentile induction of structural aberration (TA %): 24 hours, CHL/IU cells
Procedure: From each sample solution, samples to be tested having a concentration of 1, 3, 10, 30, 50, and 100 μg/mL (as reduced to free form) were prepared. As a negative control, 0.1 mol/L NaOH was employed.
Chinese hamster lung (CHL/IU) cells in logarithmic growth phase were employed. The cells were treated in a culture solution containing each sample to be tested for 24 hours. Subsequently, a chromosome specimen was prepared from the thus-treated cells. The culture solution employed was an Eagle's MEM (product of NISSUI PHARMACEUTICAL CO., LTD.) medium containing 15% fetal bovine serum (15% FBS-MEM).
In each sample concentration, 100 cells during metaphase were observed, to thereby record types and numbers of the chromosomal aberration.

[16] = Escherichia coli, E. coli NIHJ, read-out: MIC
[17] = E. faevcalis ATCC 19433, read-out: MIC
[18] = Klebsiella pneumoniae, K. pneumoniae TYPE I, read-out: MIC
[19] = P. Vulgalis 08601, read-out: MIC
[20] = Pseudomonas aeruginosa, P. aeruginosa 32104, read-out: MIC
[21] = Pseudomonas aeruginosa, P. aeruginosa 32121, read-out: MIC
[22] = Staphylococcus aureus, S. aureus 870307, quinolone-resistant, read-out: MIC
[23] = Staphylococcus aureus, FDA209P, S. aureus FDA 209P, read-out: MIC
[24] = Staphylococcus epidermidis, S. epidermidis 56500, read-out: MIC
[25] = Shigella flexneri, 2A5503, read-out: MIC
[26] = Stenotrophomonas maltophilia, IID1275, S. maltophilia IID 1275, read-out: MIC
[27] = Serratia marcescens, S. marcescens 10100, read-out: MIC
[28] = Streptococcus pneumoniae, S. pneumoniae J24, quinolone-resistant, read-out: MIC
[29] = Streptococcus pyogenes, G36, S. pyogenes G-36, read-out: MIC

| SMILES | MIC [1, 16] [µg/mL] | MIC [2, 17] [µg/mL] | MIC [3, 18] [µg/mL] | MIC [4, 19] [µg/mL] | MIC [5, 20] [µg/mL] | MIC [6, 21] [µg/mL] | MIC [7, 22] [µg/mL] | MIC [8, 23] [µg/mL] | MIC [9, 24] [µg/mL] | MIC [10, 25] [µg/mL] | MIC [11, 26] [µg/mL] | MIC [12, 27] [µg/mL] | MIC [13, 28] [µg/mL] | MIC [14, 29] [µg/mL] | Percentile induction of structural aberration (TA %) ([15]; 1 μg/mL) [%] | Percentile induction of structural aberration (TA %) ([15]; 3 μg/mL) [%] | Percentile induction of structural aberration (TA %) ([15]; 10 μg/mL) [%] | Percentile induction of structural aberration (TA %) ([15]; 30 μg/mL) | Percentile induction of structural aberration (TA %) ([15]; 50 μg/mL) | Percentile induction of structural aberration (TA %) ([15]; 100 μg/mL) | other results |
| --- | --- | --- | --- | --- | --- | --- | --- | --- | --- | --- | --- | --- | --- | --- | --- | --- | --- | --- | --- | --- | --- |
| O=C(O)c1cn(C2CC2)c2cc(N3CCNCC3)c(F)cc2c1=O [CPFX, reference compound] |  |  |  |  |  |  |  |  |  |  |  |  |  |  |  |  |  |  |  |  | MIC ([1]; E. coli NIHJ): ≦0.003 μg/mL; MIC ([2]; E. faevcalis ATCC 19433): 0.78 µg/mL (≈ 2.35 µM); MIC ([3]; K. pneumoniae TYPE I): 0.025 µg/mL (≈ 0.0754 µM); MIC ([4]; P. Vulgalis 08601): ≦0.003 μg/mL; MIC ([5]; P. aeruginosa 32104): 0.05 µg/mL (≈ 0.151 µM); MIC ([6]; P. aeruginosa 32121): 0.025 µg/mL (≈ 0.0754 µM); MIC ([7]; S. aureus 870307, quinolone-resistant): >6.25 µg/mL; MIC ([8]; S. aureus FDA 209P): 0.1 µg/mL (≈ 0.302 µM); MIC ([9]; S. epidermidis 56500): 0.2 µg/mL (≈ 0.604 µM); MIC [10]: 0.006 µg/mL (≈ 0.0181 µM); MIC ([11]; S. maltophilia IID 1275): 0.78 µg/mL (≈ 2.35 µM); MIC ([12]; S. marcescens 10100): 0.025 µg/mL (≈ 0.0754 µM); MIC ([13]; S. pneumoniae J24, quinolone-resistant): 0.39 µg/mL (≈ 1.18 µM); MIC ([14]; S. pyogenes G-36): 1.56 µg/mL (≈ 4.71 µM) |
| Cc1c(N2C[C@@H](N)[C@@H](C)C2)c(F)cc2c(=O)c(C(=O)O)cn(C3CC3)c12 [Comparative Compound C, reference compound] | 0.012 (≈ 0.0334 µM) | 0.2 (≈ 0.556 µM) | 0.05 (≈ 0.139 µM) | 0.05 (≈ 0.139 µM) | 0.39 (≈ 1.09 µM) | 0.2 (≈ 0.556 µM) | 1.56 (≈ 4.34 µM) | 0.025 (≈ 0.0696 µM) | 0.1 (≈ 0.278 µM) | 0.025 (≈ 0.0696 µM) | 0.2 (≈ 0.556 µM) | 0.2 (≈ 0.556 µM) | 0.1 (≈ 0.278 µM) | 0.2 (≈ 0.556 µM) | 3 | 4 | 5 | 72* % | 98* % | TOX*^2 | Observation of chromosomes (cytotoxicity) ([15]; at a concentration of 100 μg/mL): could not be observed |
| CC[C@H]1CN(c2c(F)cc3c(=O)c(C(=O)O)cn([C@@H]4C[C@@H]4F)c3c2C)C[C@H]1N [Compound No. 2, 7-[(3S,4S)-3-Amino-4-ethylpyrrolidin-1-yl]-6-fluoro-1-[(1R,2S)-2-fluorocyclopropyl]-8-methyl-1,4-dihydro-4-oxoquinoline-3-carboxylic acid] | ≤ 0.003 | 0.1 (≈ 0.255 µM) | 0.025 (≈ 0.0639 µM) | 0.006 (≈ 0.0153 µM) | 0.05 (≈ 0.128 µM) | 0.025 (≈ 0.0639 µM) | 0.39 (≈ 0.996 µM) | 0.006 (≈ 0.0153 µM) | 0.025 (≈ 0.0639 µM) | ≤ 0.003 | 0.05 (≈ 0.128 µM) | 0.025 (≈ 0.0639 µM) | 0.025 (≈ 0.0639 µM) | 0.025 (≈ 0.0639 µM) | 1 | 1 | 1 | 2% | 3% | 8% | Significant increase in number of the cells exhibiting chromosomal aberration ([15]; at a concentration of up to 100 μg/mL): not observed |
| CCC[C@H]1CN(c2c(F)cc3c(=O)c(C(=O)O)cn([C@@H]4C[C@@H]4F)c3c2C)C[C@H]1N [Compound No. 5, 7-[(3S,4S)-3-Amino-4-propylpyrrolidin-1-yl]-6-fluoro-1-[(1R,2S)-2-fluorocyclopropyl]-8-methyl-1,4-dihydro-4-oxoquinoline-3-carboxylic acid-hydrochloride] |  |  |  |  |  |  |  |  |  | 0.006 |  |  |  |  |  |  |  |  |  |  | MIC ([1]; Escherichia coli): 0.006 µg/mL; MIC [2]: 0.1 µg/mL; MIC ([3]; Klebsiella pneumoniae): 0.025 µg/mL; MIC [4]: 0.012 µg/mL; MIC ([5]; Pseudomonas aeruginosa, 32104): 0.2 µg/mL; MIC ([6]; Pseudomonas aeruginosa, 32121): 0.1 µg/mL; MIC ([7]; Staphylococcus aureus, 870307): 0.2 µg/mL; MIC ([8]; Staphylococcus aureus, FDA209P): 0.006 µg/mL; MIC ([9]; Staphylococcus epidermidis, 56500): 0.025 µg/mL; MIC ([11]; Stenotrophomonas maltophilia, IID1275): 0.05 µg/mL; MIC ([12]; Serratia marcescens, 10100): 0.05 µg/mL; MIC ([13]; Streptococcus pneumoniae, J24): 0.025 µg/mL; MIC ([14]; Streptococcus pyogenes, G36): 0.025 µg/mL |
| COc1c(N2C[C@@H](N)[C@@H](C3CC3)C2)c(F)cc2c(=O)c(C(=O)O)cn([C@@H]3C[C@@H]3F)c12 [Compound No. 8, 7-[(3S,4S)-3-Amino-4-cyclopropylpyrrolidin-1-yl]-6-fluoro-1-[(1R,2S)-2-fluorocyclopropyl]-8-methoxy-1,4-dihydro-4-oxoquinoline-3-carboxylic acid] | 0.006 (≈ 0.0143 µM) | 0.1 (≈ 0.238 µM) | 0.05 (≈ 0.119 µM) | 0.025 (≈ 0.0596 µM) | 0.2 (≈ 0.477 µM) | 0.1 (≈ 0.238 µM) | 0.39 (≈ 0.93 µM) | 0.012 (≈ 0.0286 µM) | 0.1 (≈ 0.238 µM) | 0.025 (≈ 0.0596 µM) | 0.2 (≈ 0.477 µM) | 0.1 (≈ 0.238 µM) | 0.1 (≈ 0.238 µM) | 0.1 (≈ 0.238 µM) |  |  |  |  |  |  | melting point: 211 to 214 °C |
